These are literature values, as cited in patent publication US20210402001A1, “Zinc Porters, and their Monoclonal Antibody Conjugates, for the Prevention and Treatment of COVID-19 (SARS-CoV-2), Other Infections, and Cancers” (priority 2020, published 2021).

For data set [1] the following is noted: intranasal.
Another data set relates to blood platelets. The conditions noted are these: healthy individuals, single oral dose of 220 mg.
For data set [2] the following is noted: oxidized HDEFA5.
The subject of the next data set is trypsin. The conditions noted are these: reduced state, five trypsin cleavage sites.

Consider `O=S(=O)([O-])[O-].[Zn+2]` [Zn sulfate], for which the “loss of smell (anosmia)” value in data set [1] is on record as “profound acute anosmia”. The platelet activity result with blood platelets is “hyperactive”.
In the case of “ATCYCRTGRCATRESLSGVCEISGRLYRLCCR [HDEFA5]”, the Zn dissociation constant entry in data set [2] is “picomolar”. Moreover, in the data set on trypsin, the “degradation by gut trypsin” value is “rapidly degraded”.
